From ChEMBL document CHEMBL1909046, “DrugMatrix in vitro pharmacology data”

Legend:
[1] = DRUGMATRIX: ATPase, Na+/K+ enzyme inhibition (substrate: ATP); assay type: tissue-based, Sus scrofa, Heart; settings: Not Active = under 50% inhibition at 10 µM
[2] = DRUGMATRIX: Calcium Channel Type L, Benzothiazepine radioligand binding (ligand: [3H] Diltiazem); assay type: cell membranes, Rattus norvegicus, Wistar, Brain, Membrane; settings: Not Active = under 50% inhibition at 10 µM
[3] = DRUGMATRIX: Calcium Channel Type L, Dihydropyridine radioligand binding (ligand: [3H] Nitrendipine); assay type: cell membranes, Rattus norvegicus, Wistar, Cerebral cortex, Membrane; settings: Not Active = under 50% inhibition at 10 µM
[4] = DRUGMATRIX: Tumor Necrosis Factor (TNF), Non-Selective radioligand binding (ligand: [125I] TNF-alpha); assay type: cell membranes, Membrane; settings: u-937; Not Active = under 50% inhibition at 10 µM
[5] = target: T1, Muscarinic acetylcholine receptor M4 (Homo sapiens, UniProt P08173); assay type: cell membranes, CHO-K1, Membrane; settings: cho-k1; note: in other assays of this panel Not Active means under 50% inhibition at 10 µM
T1 sequence (P08173 whole entry): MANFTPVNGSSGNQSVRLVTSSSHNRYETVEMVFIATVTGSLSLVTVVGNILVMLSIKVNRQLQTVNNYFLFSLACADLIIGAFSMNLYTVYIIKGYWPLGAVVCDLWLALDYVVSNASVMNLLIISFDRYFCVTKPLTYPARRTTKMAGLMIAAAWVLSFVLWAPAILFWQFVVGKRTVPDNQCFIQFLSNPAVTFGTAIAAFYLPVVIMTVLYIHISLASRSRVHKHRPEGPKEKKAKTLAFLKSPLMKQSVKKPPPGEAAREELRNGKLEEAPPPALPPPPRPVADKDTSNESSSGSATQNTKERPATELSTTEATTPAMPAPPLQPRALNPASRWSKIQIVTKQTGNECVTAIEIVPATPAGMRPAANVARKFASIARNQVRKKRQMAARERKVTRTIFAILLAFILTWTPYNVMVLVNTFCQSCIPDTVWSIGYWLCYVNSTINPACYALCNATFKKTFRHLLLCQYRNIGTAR

[6] = target: Delta-type opioid receptor (Homo sapiens, UniProt P41143); assay type: cell membranes, HEK293, Membrane; settings: hek293; note: in other assays of this panel Not Active means under 50% inhibition at 10 µM
Delta-type opioid receptor, sequence (P41143 whole entry): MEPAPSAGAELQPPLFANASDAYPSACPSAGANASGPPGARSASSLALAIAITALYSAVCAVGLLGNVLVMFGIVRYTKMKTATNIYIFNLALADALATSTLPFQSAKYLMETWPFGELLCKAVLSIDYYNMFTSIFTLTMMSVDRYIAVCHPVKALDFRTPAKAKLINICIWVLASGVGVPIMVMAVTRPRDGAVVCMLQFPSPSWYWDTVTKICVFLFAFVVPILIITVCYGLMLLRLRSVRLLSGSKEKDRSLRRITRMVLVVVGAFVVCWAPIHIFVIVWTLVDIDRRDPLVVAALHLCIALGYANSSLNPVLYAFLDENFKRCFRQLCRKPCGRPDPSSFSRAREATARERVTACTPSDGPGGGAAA

Adenosine receptor A2a = Adenosine receptor A2a (Homo sapiens, UniProt P29274); assay: DRUGMATRIX: Adenosine A2A radioligand binding (ligand: […]); assay type: cell membranes, HEK293, Membrane; settings: hek293; Not Active = under 50% inhibition at 10 µM
Adenosine receptor A2a, sequence (P29274 whole entry): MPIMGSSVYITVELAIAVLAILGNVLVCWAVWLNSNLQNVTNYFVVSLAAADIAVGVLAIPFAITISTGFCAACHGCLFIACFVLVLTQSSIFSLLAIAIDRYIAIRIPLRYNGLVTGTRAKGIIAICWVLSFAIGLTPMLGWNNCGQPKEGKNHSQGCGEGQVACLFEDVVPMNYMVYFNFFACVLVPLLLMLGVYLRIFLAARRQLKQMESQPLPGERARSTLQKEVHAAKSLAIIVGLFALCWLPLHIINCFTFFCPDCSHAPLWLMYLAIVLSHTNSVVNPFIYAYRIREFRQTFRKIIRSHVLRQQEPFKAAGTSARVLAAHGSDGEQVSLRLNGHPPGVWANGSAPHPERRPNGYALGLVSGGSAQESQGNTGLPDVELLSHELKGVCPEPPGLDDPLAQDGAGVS

Nn1nnc2ccccc21
Not Active: IC50 [1] | Ki [1] | IC50 [2] | Ki [2] | IC50 [3] | Ki [3] | IC50 [4] | Ki [4] | IC50 [5] | IC50 [6] | IC50 (Adenosine receptor A2a)

CC[C@]1(O)CC[C@H]2[C@@H]3CCC4=CCCC[C@@H]4[C@H]3CC[C@@]21C
Not Active: IC50 [1] | Ki [1] | IC50 [2] | Ki [2] | IC50 [3] | Ki [3] | IC50 [4] | Ki [4] | IC50 [5] | IC50 [6] | IC50 (Adenosine receptor A2a)

N[C@@H](Cc1ccc(F)cc1)C(=O)O
Not Active: IC50 [1] | Ki [1] | IC50 [2] | Ki [2] | IC50 [3] | Ki [3] | IC50 [4] | Ki [4] | IC50 [5] | IC50 [6] | IC50 (Adenosine receptor A2a)

CCOC(=O)[C@H](CCc1ccccc1)N[C@@H](C)C(=O)N1Cc2ccccc2C[C@H]1C(=O)O
Not Active: IC50 [1] | Ki [1] | IC50 [2] | Ki [2] | IC50 [3] | Ki [3] | IC50 [4] | Ki [4] | IC50 [5] | IC50 [6] | IC50 (Adenosine receptor A2a)

O=C(c1ccccc1Cl)N1CCC(Cc2ccccc2)CC1
Not Active: IC50 [1] | Ki [1] | IC50 [2] | Ki [2] | IC50 [3] | Ki [3] | IC50 [4] | Ki [4] | IC50 [5] | IC50 [6] | IC50 (Adenosine receptor A2a)

CCOC(=O)[C@H](CCc1ccccc1)N[C@@H](C)C(=O)N1CCC[C@H]1C(=O)O
Not Active: IC50 [1] | Ki [1] | IC50 [2] | Ki [2] | IC50 [3] | Ki [3] | IC50 [4] | Ki [4] | IC50 [5] | IC50 [6] | IC50 (Adenosine receptor A2a)

Clc1cc2c(cc1Cl)Oc1cc(Cl)c(Cl)cc1O2 [2,3,7,8-TETRACHLORODIBENZO-P-DIOXIN]
Not Active: IC50 [1] | Ki [1] | IC50 [2] | Ki [2] | IC50 [3] | Ki [3] | IC50 [4] | Ki [4] | IC50 [5] | IC50 [6] | IC50 (Adenosine receptor A2a)

C=C1/C(=C\C=C2/CCC[C@]3(C)[C@@H]([C@H](C)CCCC(C)C)CC[C@@H]23)C[C@@H](O)C[C@@H]1O [ALFACALCIDOL]
Not Active: IC50 [1] | Ki [1] | IC50 [2] | Ki [2] | IC50 [3] | Ki [3] | IC50 [4] | Ki [4] | IC50 [5] | IC50 [6] | IC50 (Adenosine receptor A2a)

CCCCCC[C@H]1C(=O)O[C@H](C)[C@H](NC(=O)c2cccc(NC=O)c2O)C(=O)O[C@@H](C)[C@@H]1OC(=O)CC(C)C [ANTIMYCIN A]
Not Active: IC50 [1] | Ki [1] | IC50 [2] | Ki [2] | IC50 [3] | Ki [3] | IC50 [4] | Ki [4] | IC50 [5] | IC50 [6] | IC50 (Adenosine receptor A2a)

C[C@@H]1CC[C@H]2[C@@H](C)C(=O)O[C@@H]3O[C@@]4(C)CC[C@@H]1[C@]32OO4 [ARTEMISININ]
Not Active: IC50 [1] | Ki [1] | IC50 [2] | Ki [2] | IC50 [3] | Ki [3] | IC50 [4] | Ki [4] | IC50 [5] | IC50 [6] | IC50 (Adenosine receptor A2a)

CO[C@H]1[C@@H](O)[C@H](N)[C@@H](O[C@H]2O[C@H]([C@H](C)N)CC[C@H]2N)[C@H](O)[C@@H]1N(C)C(=O)CN [ASTROMICIN]
Not Active: IC50 [1] | Ki [1] | IC50 [2] | Ki [2] | IC50 [3] | Ki [3] | IC50 [4] | Ki [4] | IC50 [5] | IC50 [6] | IC50 (Adenosine receptor A2a)

[N-]=[N+]=CC(=O)OC[C@H](N)C(=O)O [AZASERINE]
Not Active: IC50 [1] | Ki [1] | IC50 [2] | Ki [2] | IC50 [3] | Ki [3] | IC50 [4] | Ki [4] | IC50 [5] | IC50 [6] | IC50 (Adenosine receptor A2a)

CC[C@H]1OC(=O)[C@H](C)[C@@H](O[C@H]2C[C@@](C)(OC)[C@@H](O)[C@H](C)O2)[C@H](C)[C@@H](O[C@@H]2O[C@H](C)C[C@H](N(C)C)[C@H]2O)[C@](C)(O)C[C@@H](C)CN(C)[C@H](C)[C@@H](O)[C@]1(C)O [AZITHROMYCIN]
Not Active: IC50 [1] | Ki [1] | IC50 [2] | Ki [2] | IC50 [3] | Ki [3] | IC50 [4] | Ki [4] | IC50 [5] | IC50 [6] | IC50 (Adenosine receptor A2a)

CC(C)(C)c1ccc(S(=O)(=O)/C=C/C#N)cc1 [BAY-11-7085]
Not Active: IC50 [1] | Ki [1] | IC50 [2] | Ki [2] | IC50 [3] | Ki [3] | IC50 [4] | Ki [4] | IC50 [5] | IC50 [6] | IC50 (Adenosine receptor A2a)

CCc1oc2ccccc2c1C(=O)c1cc(Br)c(O)c(Br)c1 [BENZBROMARONE]
Not Active: IC50 [1] | Ki [1] | IC50 [2] | Ki [2] | IC50 [3] | Ki [3] | IC50 [4] | Ki [4] | IC50 [5] | IC50 [6] | IC50 (Adenosine receptor A2a)

O=c1cc(-c2ccccc2)oc2ccc3ccccc3c12 [BETA-NAPHTHOFLAVONE]
Not Active: IC50 [1] | Ki [1] | IC50 [2] | Ki [2] | IC50 [3] | Ki [3] | IC50 [4] | Ki [4] | IC50 [5] | IC50 [6] | IC50 (Adenosine receptor A2a)
